Experimental data as given in ChEMBL document CHEMBL1287808, “Synthesis and anti-HCV activity of a new 2'-deoxy-2'-fluoro-2'-C-methyl nucleoside analogue” (Bioorg Med Chem Lett, 2010).
Converted amounts (≈) assume the structure as drawn. The source made the active and inactive calls. No cut-off for these calls is given here.

Assays:
Hepatitis C virus [1] = assay: Antiviral activity against Hepatitis C virus infected in Ava5 cell assessed as suppression of HCV replication at 0.06 ug/ml; type: functional, organism-based; conditions: Hepacivirus hominis
Hepatitis C virus [2] = assay: Antiviral activity against Hepatitis C virus infected in Ava5 cell assessed as suppression of HCV replication at 6 ug/ml; type: functional, organism-based; conditions: Hepacivirus hominis
Hepatitis C virus [3] = assay: Antiviral activity against Hepatitis C virus infected in HEK293 cell expressing sip-L protein assessed viral RNA level; type: functional, organism-based, Hepacivirus hominis
Hepatitis C virus [4] = assay: Antiviral activity against Hepatitis C virus infected in Ava5 cell assessed as suppression of HCV replication at 0.6 ug/ml; type: functional, organism-based; conditions: Hepacivirus hominis
Hepatitis C virus [5] = assay: Antiviral activity against Hepatitis C virus infected in HEK293 cell expressing sip-L protein; type: functional, organism-based, Hepacivirus hominis

C[C@@]1(F)[C@H](O)[C@@H](CO)O[C@H]1n1cc(F)c2c(N)ncnc21
Activity (Hepatitis C virus [1]): inactive | Activity (Hepatitis C virus [2]): Active | EC50 (Hepatitis C virus [3]): 0.8 µg/mL (≈ 2.66 µM) | Activity (Hepatitis C virus [4]): Active | IC50 (Hepatitis C virus [5]): 350 µg/mL (≈ 1170 µM)
